# Values of other authors, collected in patent US11795119B2, “Stabilized DCD and/or alkyl thiophosphoric triamide solvent systems and use in agricultural applications” (RHODIA OPERATIONS, priority 2016, dated 2023).
# Assays:
# [1] = typically above 45° C.
Structure (SMILES),solubility in water,degradation at higher temperature [1]
"N#CNC(=N)N [Dicyandiamide, 2-cyanoguanidine]",about 41 g/l,
"CCCCNP(N)(N)=S [NBPT, N-(n-butyl)-thiophosphoric triamide]",,degrades rapidly
